Patent US20210386695A1 (priority 2020, published 2021)
pEC50: −log10 of the molar value.

Legend:
Format in all cases: cell-based
[1] = test system: 501Y-V2 variant of SARS-CoV-2 pseudo-particles; test: microbe, parasite or virus in culture; settings: Severe acute respiratory syndrome coronavirus 2, Vero C1008
[2] = test system: B.1.1.7 variant of SARS-CoV-2 pseudo-particles
[3] = test system: B.1.1.7 variant of SARS-CoV-2 pseudo-particles; remark: listed apart in the source
[4] = test system: B.1.1.7 variant of SARS-CoV-2 pseudo-particles; test: microbe, parasite or virus in culture; settings: Severe acute respiratory syndrome coronavirus 2, Vero C1008

CCN(CC)C(=S)SSC(=S)N(CC)CC [disulfiram]
pEC50 [1]: 5.42 | inhibitory capacity in furin-expressing Vero E6 cells compared with Vero E6 cells [2]: similar | block of viral pseudo-particles infection [3]: dose-dependent manner | pEC50 [4]: 5.50
